Test results as given in patent US6545053B1, “Tricyclic compounds and drug compositions containing same” (Asahi Kasei Kogyo Kabushiki Kaisha, priority 1996, dated 2003).
Structures can show the parent of a compound that is named as a salt. Where two headings read alike, the source gives them in different places.

Key:
human β3 = biological target: T1, human β3 (Homo sapiens, UniProt P13945); experiment: Human β3-agonist activity (cAMP in CHO cells transfected with human β3 gene); format: cell-based; conditions: for Emax: CHO, read-out: Intrinsic activity (%)
T1 construct: And then full length of human β3 gene was cloned using this fragment as a probe; expressed in transfected cells; host or cells: CHO cells (Chinese hamster ovary), pcDNA3 vector
T1 sequence (P13945 whole entry, the tested form may be a part): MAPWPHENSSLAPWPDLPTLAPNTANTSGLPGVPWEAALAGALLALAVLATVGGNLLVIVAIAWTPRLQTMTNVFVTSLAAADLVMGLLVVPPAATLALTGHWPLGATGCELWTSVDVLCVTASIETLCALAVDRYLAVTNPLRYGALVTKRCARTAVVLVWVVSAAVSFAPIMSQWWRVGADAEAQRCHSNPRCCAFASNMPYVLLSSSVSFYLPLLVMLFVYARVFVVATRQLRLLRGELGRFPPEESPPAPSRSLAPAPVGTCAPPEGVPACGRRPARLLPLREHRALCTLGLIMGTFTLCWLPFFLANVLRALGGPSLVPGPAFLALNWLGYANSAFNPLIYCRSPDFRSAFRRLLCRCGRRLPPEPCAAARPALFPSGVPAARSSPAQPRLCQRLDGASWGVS
Method: Human β3-agonist Activity
Human β3-agonist activity was examined using CHO cells (chinese hamster ovarian cells) to which pcDNA3 (in vitrogen) cells inserted human β3 gene was transfected. Human β3 fragment was obtained by PCR using human fat tissue cDNA (supplied from Clontech) with a β3 primer [Krief et al, J. Clin. Invest.
The cells were cultured in a HAM F-12 medium containing 10% of fetal bovine serum, 400 μg/ml of Geneticin (Gibco BRL). 100 U/ml penicillin and 100 μg/ml streptomycin. 5×10^5 cells were placed on a 6-well plate and cultured for 24 hours, after which the medium was changed to a HAM F-12 medium without serum and was kept for 2 hours. Each test compound was first dissolved in DMSO, and then diluted with a HAM F-12 medium containing 1 mM isobutylmethyl xanthine and 1 mM ascorbic acid. A 10-fold dilution in the range of 10^−5 to 10^−12 M was added into the cell.
After culturing for 30 minutes, culture medium was withdrawn, 0.5 ml of 1 N NaOH was added and was kept for 20 minutes. And then 0.5 ml of 1 N acetic acid was added with subsequent agitation and centrifugation. Finally the concentration of cAMP were analyzed using cAMP EIA KIT (Cayman). […] Isoprotelenol was purchased from Research Biochimicals International.

canine adipocytes = experiment: Lipolytic activity in canine fatty cell (glycerol release); format: cell-based, dogs; conditions: Canis lupus familiaris, Adipocyte; for EC50: 1 h, glycerol release, canine adipocytes, read-out: ED50 (the source's name); for Emax: read-out: Intrinsic activity (%)
Method: Lipolytic Activity in Canine Fatty Cell
Adipose tissues in the omentum were collected from dogs and minced and washed. Krebs-Ringer buffer solution containing 1 mg/ml Collagenase (Sigma) and 1% of bovine serum albumin was added in an amount of 3 ml per one gram of the tissue. These cells were then incubated at 37° C. for 30 minutes with shaking and then undigested tissues were removed with a nylon filter. The resulting adipocytes were washed four times with Krebs-Ringer buffer, and then the concentration of cells was diluted to 2×10^5/ml with Krebs-Ringer buffer solution containing 4% of bovine serum albumin. These cells were transferred to Eppendorf tubes each in an amount of 300 μl.
Each 300 μl of a culture medium containing the test compounds were added to these tubes and was held at 37° C. for 1 hour whith shaking. Stimulation was stoped by cooling with ice. After centrifugation, the adipocytes were taken off with an aspirator, whereupon the glycerol was determined using F-KIT GLTCEROL (Behringer-Manheim).

male ddy mice [1] = experiment: Lipolytic effect in mice (serum free fatty acid); format: in vivo
Method: Blood Sugar Decreasing Effect and Lipolytic Effect Male ddy mice (supplied from the firm Nippon Charles Liver) of 6 weeks age were subcutaneously administered with glucose in a dose of 2 g/kg. The animals were also treated with either one of test compounds via oral or intraperitoneal administration in a dose of 0.1 ml per 10 grams of body weight. After one hour, blood sample was taken from abdominal aorta, from which serum was separated and served as the sample. Lipolytic Effect Amount of free fatty acid in the samples was determined using NEFA HA TEST WAKO (of the firm Wako Pure Chemical). […] Therefore, it was shown that they are useful as medicament for preventive and therapeutic treatment of hyperlipemia and for therapeutic treatment of obesity.

male ddy mice [2] = experiment: Blood sugar decreasing effect in glucose-loaded mice; format: in vivo; conditions: glucose 2 g/kg s.c., after one hour
Method: Blood Sugar Decreasing Effect and Lipolytic Effect Male ddy mice (supplied from the firm Nippon Charles Liver) of 6 weeks age were subcutaneously administered with glucose in a dose of 2 g/kg. The animals were also treated with either one of test compounds via oral or intraperitoneal administration in a dose of 0.1 ml per 10 grams of body weight. After one hour, blood sample was taken from abdominal aorta, from which serum was separated and served as the sample. Blood Sugar Decreasing Effect The samples prepared as above were analyzed for the serum glucose concentration by Auto analyzer (SUPER Z of the firm M. C. Medical). For the analyzer kit, Glucose II HA TEST WAKO (of the firm Wako Pure Chemical) was used. % decrease in blood sugar=[(A−B)/(A−C)]×100 in which A represents the glucose concentration upon being loaded with glucose, B represents the glucose concentration after administration of the compound and C is the usual level of the glucose concentration. […] Therefore, it was proven that the compound according to the present invention is effective as a medicament for therapeutic and preventive treatment of diabetes.

male ddy mice [3] = experiment: Toxicity test in mice; format: in vivo; conditions: dose of 100 mg/kg; 8 mice
Method: The compounds of Examples 7 and 31 were administered to 6 week age male ddy mice (supplied from the firm Nippon Charles Liver) at a dose of 100 mg/kg.

[4] = cAMP, CHO cells with human β3, read-out: ED50 (the source's name)

| EC50 (human β3; [4]) | Compound | EC50 (human β3) | Emax (human β3) | EC50 (canine adipocytes) | Emax (canine adipocytes) | increase of free fatty acid (male ddy mice [1]; intraperitoneal administration of 10 mg/kg) | % decrease in blood sugar (male ddy mice [2]; intraperitoneal administration) | fatal cases (male ddy mice [3]) | increase of free fatty acid (male ddy mice [1]; oral administration of 100 mg/kg) | increase of free fatty acid (male ddy mice [1]; oral administration of 30 mg/kg) | % decrease in blood sugar (male ddy mice [2]; oral administration) |
| --- | --- | --- | --- | --- | --- | --- | --- | --- | --- | --- | --- |
|  | CS(=O)(=O)Nc1cc(C(O)CNCCOc2ccc3c(c2)[nH]c2ccccc23)ccc1O.Cl (racemic) [Example 2, (±)-N-[5-[2-[2-(9H-Carbazol-2-yloxy)ethylamino]-1-hydroxyethyl]-2-hydroxyphenyl]methanesulfonamide Hydrochloride] | 0.18 nM | 120% | 56 nM | 82% | 67.2% | 77.1% |  |  |  |  |
|  | CS(=O)(=O)Nc1cccc(C(O)CNCCOc2ccc3c(c2)[nH]c2ccccc23)c1.Cl (racemic) [Example 7, (±)-N-[3-[2-[2-(9H-Carbazol-2-yloxy)ethylamino]-1-hydroxyethyl]phenyl]methanesulfonamide Hydrochloride] | 18 nM | 95% | 1200 nM | 90% |  |  | no fatal case | 47.7% |  |  |
|  | CN(C)S(=O)(=O)Nc1cc(C(O)CNCCOc2ccc3c(c2)oc2ccccc23)ccc1O (racemic) [Example 43, (±)-N′-[5-[2-[2-(Dibenzofuran-3-yloxy)ethylamino]-1-hydroxyethyl]-2-hydroxyphenyl]-N,N-dimethylsulfamide Hydrochloride] | 85 nM | 104% | 4 nM | 77% |  |  |  |  |  |  |
| 0.94 nM | CC(=O)Nc1ccc2c(c1)Cc1cc(OCCNCC(O)c3ccc(O)c(NS(C)(=O)=O)c3)ccc1-2 (racemic) [Example 50, (±)-N-[5-[2-[2-(9H-7-Acetylaminofluoren-2-yloxy)ethylamino]-1-hydroxyethyl]-2-hydroxyphenyl]methanesulfonamide Hydrochloride] |  | 85% | 0.19 nM | 112% |  |  |  |  |  |  |
| 2.6 nM | CS(=O)(=O)Nc1cc(C(O)CNCCOc2ccc3c(c2)Cc2cc(N)ccc2-3)ccc1O (racemic) [Example 52, (±)-N-[5-[2-[2-(9H-7-Aminofluoren-2-yloxy)ethylamino]-1-hydroxyethyl]-2-hydroxyphenyl]methanesulfonamide Hydrochloride] |  | 78% | 0.38 nM | 100% |  |  |  |  |  |  |
|  | CC(C)S(=O)(=O)Nc1cc(C(O)CNCCOc2ccc3c(c2)[nH]c2ccccc23)ccc1O (racemic) [Example 54, (±)-N-[5-[2-[2-(9H-Carbazol-2-yloxy)ethylamino]-1-hydroxyethyl]-2-hydroxyphenyl]-2-propanesulfonamide Hydrochloride] | 8.4 nM | 109% | 25 nM | 118% |  |  |  |  |  |  |
|  | OCc1cc(C(O)CNCCOc2ccc3c(c2)[nH]c2ccccc23)ccc1O (racemic) [Example 67, (±)-2-[N-[2-(9H-Carbazol-2-yloxy)ethyl]amino]-1-[4-hydroxy-3-(hydroxymethyl)phenyl]ethanol Hydrochloride] | 28 nM | 109% | 54 nM | 94% |  |  |  |  |  |  |
|  | COC(CNCCOc1ccc2c(c1)[nH]c1ccccc12)c1ccc(N)c(NS(C)(=O)=O)c1 (racemic) [Example 92, (±)-N-[5-[2-[2-(9H-Carbazol-2-yloxy)ethylamino]-1-methoxyethyl]-2-aminophenyl]methanesulfonamide Hydrochloride] | 280 nM | 81% | 1900 nM | 126% |  |  |  |  |  |  |
|  | O[C@@H](CNCCOc1ccc2c(c1)[nH]c1ccccc12)c1ccccc1 [Example 32, (R)-2-[N-[2-(9H-Carbazol-2-yloxy)ethyl]amino]-1-phenylethanol Hydrochloride] | 1600 nM | 98% | 290 nM | 94% |  |  |  |  |  |  |
|  | CS(=O)(=O)Nc1cc([C@@H](O)CNCCOc2ccc3c(c2)oc2ccccc23)ccc1O [Example 69, (R)-N-[5-[2-[2-(Dibenzofuran-3-yloxy)ethylamino]-1-hydroxyethyl]-2-hydroxyphenyl]methanesulfonamide Hydrochloride] | 0.016 nM | 94% | 0.65 nM | 107% |  |  |  |  |  |  |
| 180 nM | CC(=O)Nc1ccc2c(c1)Cc1cc(OCCNC[C@H](O)c3cccc(NS(C)(=O)=O)c3)ccc1-2 [Example 71, (R)-N-13-[2-[2-(9H-7-Acetylaminofluoren-2-yloxy)ethylamino]-1-hydroxyethyl]phenyl]methanesulfonamide Hydrochloride] |  | 97% | 110 nM | 88% |  |  |  |  |  |  |
|  | CS(=O)(=O)Nc1cc([C@@H](O)CNCCOc2ccc3c(c2)sc2ccccc23)ccc1O [Example 72, (R)-N-[5-[2-[2-(Dibenzothiophen-3-yloxy)ethylamino]-1-hydroxyethyl]-2-hydroxyphenyl]methanesulfonamide Hydrochloride] |  | 80% | 0.54 nM | 96% |  |  |  |  |  |  |

| Compound | EC50 (human β3; [4]) | EC50 (human β3) | Emax (human β3) | EC50 (canine adipocytes) | Emax (canine adipocytes) | increase of free fatty acid (male ddy mice [1]; intraperitoneal administration of 10 mg/kg) | % decrease in blood sugar (male ddy mice [2]; intraperitoneal administration) | fatal cases (male ddy mice [3]) | increase of free fatty acid (male ddy mice [1]; oral administration of 100 mg/kg) | increase of free fatty acid (male ddy mice [1]; oral administration of 30 mg/kg) | % decrease in blood sugar (male ddy mice [2]; oral administration) |
| --- | --- | --- | --- | --- | --- | --- | --- | --- | --- | --- | --- |
| OC(CNCCOc1ccc2c(c1)[nH]c1ccccc12)c1ccccc1 (racemic) [Example 31, (±)-2-N-[2-(9H-Carbazol-2-yloxy)ethyl]amino]-1-phenyethanol Hydrochloride] | 2200 nM |  | 100% | 7700 nM | 103% |  |  | no fatal case |  | 32.4% | 34.5% |
